Literature values as cited in patent US6153225A (Elan Pharma International Limited, priority 1998, dated 2000).
Where a name gives a salt, the structure may show the parent alone.

Structure (SMILES)	pain relief compared with aspirin (menstrual cramps, toothaches, minor arthritis, injuries with inflammation)	remission of acute and very high intensity pain (naproxen sodium salt)
COc1ccc2cc([C@H](C)C(=O)O)ccc2c1 [Naproxen, d-2(6-methoxy-2-naphthyl)propionic acid]	more potent pain reliever than aspirin	
COc1ccc2cc([C@H](C)C(=O)O)ccc2c1 [naproxen sodium salt]		rapid and sustained remission
